Experimental data: US20040198653A1, “Pharmaceutical compositions which inhibit proliferation of pituitary adenomas and method of use thereof” (priority 2001, published 2004)
Where a SMILES comes first, the peptide text is derived from it. Bridges are numbered along the chain shown (N, C = ends). [ ]: non-standard residue; d: D form. The star is where a group is joined. Gly(N-2-aminoethyl) = NCCNCC(=O)O; 3Pal = N[C@@H](Cc1cccnc1)C(=O)O; Tic = O=C(O)[C@@H]1Cc2ccccc2CN1; X1 = Nc1ccn(CC(=O)*)c(=O)n1; Abu = CC[C@H](N)C(=O)O; Bn = c1ccc(C*)cc1

How the values were obtained:
pituitary adenoma cells [1] = assay: Cell proliferation: CELLTITER 96 Aqueous (MTS/PMS) assay, number of viable cells; assay type: cell-based; conditions: 10^-9 M, 48 hours incubation, medium with 10% FBS, absorbance at 490 nm
Protocol: The effects of SSTR selective agonists on pituitary adenoma cell proliferation were assessed by the CELLTITER 96 Aqueous Non-Radioactive Cell Proliferation Assay (Promega, Milano, Italy), a colorimetric method for determining the number of viable cells in proliferation assays. The assay contains solutions of a tetrazolium compound (Owen's reagent; MTS) and an electron coupling reagent (phenazine methosulphate; PMS). MTS is bioreduced by cells into a formazan that is soluble in tissue culture medium. The absorbance of the formazan at 490 nm can be measured directly from 96 well assay plates (Zatelli M C, et al., 2000 J Clin Endocrinol Metab 85: 847-852; Cory A H, et al., 1991 Cancer Commun 3: 207-212). The conversion of MTS into the aqueous soluble formazan is accomplished by dehydrogenase enzymes found in metabolically active cells. The quantity of formazan product as measured by the amount of 490 nm absorbance is directly proportional to the number of living cells in culture.
Briefly, adenoma cells were plated in 96-multiwell plates (2×10^4 cells/well) and incubated for 48 hours in a medium supplemented with 10% FBS in the presence or absence of each SRIF analogue (including in one instance, compounds 2 & 3 together) at a concentration of 10^−9 M. Treatments were renewed by adding fresh analogues to the wells after the first 24 hours of incubation. At the end of the incubation period, 20 μl of a combined MTS/PMS solution was added to each well with a repeating pipette, and the plates were incubated for an additional 4 hours at 37° C. in a humidified 5% CO2 atmosphere. The absorbance at 490 nm was then recorded using an ELISA plate reader (EASIA Reader, Medgenix). Results (absorbance at 490 nm) were obtained by determining the mean value of at least six experiments in eight replicates.

pituitary adenoma cells [2] = assay: DNA synthesis: [3H]thymidine incorporation in pituitary adenoma cells; assay type: cell-based; conditions: 10^-9 M, 48 h incubation, medium with 10% FBS, pituitary cells from functioning adenomas
Protocol: The effects of SSTR selective agonists and antagonists on pituitary adenoma cell DNA synthesis were assessed by determining the rate of [^3H]thymidine incorporation, as previously described (Davis L, et al., 1994 In: Basic methods in Molecular Biology, 2nd edition, Appleton & Lange, Norwalk, Conn., USA: 611-646, degli Uberti E C, et al., 1991 J Clin Endocrinol Metab 72: 1364-1371).
Approximately 10^5 pituitary cells from two functioning adenomas were plated in quadruplicate wells the day of surgery and treated the day after with SRIF and with Compounds 1, 2, 3, and LANREOTIDE at 10^−9M. After 48 h incubation in a medium supplemented with 10% FBS in the presence of [^3H]thy (1.5 μCi/mL; 87 Ci/mmol) with or without each SRIF analogue. Treatments were renewed by adding fresh analogues to the wells after the first 24 h of incubation, without removing the medium.
After incubation, the cells were washed three times with ice-cold PBS and twice with 10% ice-cold trichloroacetic acid (TCA). TCA-precipitated material was solubilized in 500 μL 0.2 mol/L sodium hydroxide and 0.1% SDS. Cell-associated radioactivity was then counted in a scintillation spectrometer. Results (counts per min per well) were obtained by determining the mean value of at least six experiments in quadruplicate. The viability of cells in control and treated cultures was evaluated by Trypan blue staining.

Compound: C[C@@H](OCc1ccccc1)[C@H](NC(=O)[C@H]1CSSC[C@@H](NC(=O)CN(CCN)C(=O)Cn2ccc(N)nc2=O)C(=O)N[C@@H](Cc2cccnc2)C(=O)N[C@H](Cc2c[nH]c3ccccc23)C(=O)N[C@@H](CCCCN)C(=O)N1)C(=O)N[C@@H](Cc1ccc(O)cc1)C(N)=O [Compound 1, Caeg-c(D-Cys-Pal-D-Trp-Lys-D-Cys)-Thr(Bzl)-Tyr-NH2] (X1-[Gly(N-2-aminoethyl)][dC][3Pal][dW]K[dC]T(Bn)Y-NH2; disulfide 2-6)
- % Reduction Viable Cells (pituitary adenoma cells [1]): 28.5%

Compound: CC[C@@H]1NC(=O)[C@H](CCCCN)NC(=O)[C@@H](Cc2c[nH]c3ccccc23)NC(=O)[C@H](Cc2ccc(O)cc2)NC(=O)[C@@H]2Cc3ccccc3CN2C(=O)[C@H](Cc2ccccc2)NC1=O [Compound 2, cyclo[Tic-Tyr-D-Trp-Lys-Abu-Phe]] (cyclo([Tic]Y[dW]K[Abu]F))
- % Reduction [3H]Thymidine (pituitary adenoma cells [2]): 25. %
- % Reduction Viable Cells (pituitary adenoma cells [1]): 12.5%

Compound: C[C@@H](O)[C@H](NC(=O)[C@H](Cc1ccccc1)NC(=O)[C@@H](NC(=O)[C@H](CCCCN)NC(=O)[C@@H](Cc1c[nH]c2ccccc12)NC(=O)[C@H](Cc1c[nH]c2ccccc12)NC(=O)[C@H](Cc1ccccc1)NC(=O)[C@H](N)Cc1ccccc1)[C@@H](C)O)C(N)=O [Compound 3, D-Phe-Phe-Trp-D-Trp-Lys-Thr-Phe-Thr-NH2]
- % Reduction [3H]Thymidine (pituitary adenoma cells [2]): 15.5%

Compound: CC(C)[C@@H]1NC(=O)[C@H](CCCCN)NC(=O)[C@@H](Cc2c[nH]c3ccccc23)NC(=O)[C@H](Cc2ccc(O)cc2)NC(=O)[C@@H](NC(=O)[C@H](N)Cc2ccc3ccccc3c2)CSSC[C@@H](C(=O)N[C@H](C(N)=O)[C@@H](C)O)NC1=O [LANREOTIDE, D-Nal-cyclo[Cys-Tyr-D-Trp-Lys-Val-Cys]-Thr-NH2, reference compound]
- % Reduction [3H]Thymidine (pituitary adenoma cells [2]): 25. %
- % Reduction Viable Cells (pituitary adenoma cells [1]): 12. %

Compound: C[C@H](N)C(=O)NCC(=O)N[C@H]1CSSC[C@@H](C(=O)O)NC(=O)[C@H](CO)NC(=O)[C@H]([C@@H](C)O)NC(=O)[C@H](Cc2ccccc2)NC(=O)[C@H]([C@@H](C)O)NC(=O)[C@H](CCCCN)NC(=O)[C@H](Cc2c[nH]c3ccccc23)NC(=O)[C@H](Cc2ccccc2)NC(=O)[C@H](Cc2ccccc2)NC(=O)[C@H](CC(N)=O)NC(=O)[C@H](CCCCN)NC1=O [SRIF, reference compound]
- % Reduction Viable Cells (pituitary adenoma cells [1]): 8. %
